The source of these data is patent publication US20090239840A1, “AMINO SUBSTITUTED DIARYL[a,d]CYCLOHEPTENE ANALOGS AS [sequence] AGONISTS AND METHODS OF TREATMENT OF NEUROPSYCHIATRIC DISORDERS” (ACADIA PHARMACEUTICALS, INC., priority 2003, published 2009).

Molecules are shown by their SMILES. Like-named read-outs stand apart in the source and are kept apart here.

One test addresses T1, muscarinic M1 receptor (Homo sapiens, UniProt P11229).
T1 construct: expressed in transfected cells
T1 sequence (P11229 1-460): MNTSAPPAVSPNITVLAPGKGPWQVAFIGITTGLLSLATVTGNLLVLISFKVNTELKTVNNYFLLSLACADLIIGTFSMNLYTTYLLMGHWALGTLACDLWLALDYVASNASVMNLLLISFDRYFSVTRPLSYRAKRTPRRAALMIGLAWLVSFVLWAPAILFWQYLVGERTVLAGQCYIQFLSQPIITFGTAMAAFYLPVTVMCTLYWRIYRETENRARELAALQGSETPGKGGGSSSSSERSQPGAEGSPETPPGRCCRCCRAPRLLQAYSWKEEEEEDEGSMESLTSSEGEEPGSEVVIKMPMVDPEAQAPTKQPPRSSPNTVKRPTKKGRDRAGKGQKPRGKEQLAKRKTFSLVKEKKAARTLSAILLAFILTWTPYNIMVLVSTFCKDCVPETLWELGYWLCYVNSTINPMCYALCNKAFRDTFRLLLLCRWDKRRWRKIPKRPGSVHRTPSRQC
Description: R-SAT functional screen, M1. It is filed as cell-based. Conditions: for Emax: read-out: M1 eff (efficacy); for EC50: read-out: M1 pEC50 (converted). On the procedure: (§1) Several compounds disclosed herein were evaluated for activity at muscarinic receptors using Receptor Selection and Amplification Technology (R-SAT) as described in U.S. Pat. No. 5,707,798, the disclosure of which is incorporated herein by reference in its entirety. The efficacy (eff) and potency (expressed as pEC50) of these compounds are presented in Table 1 at M1, M2, and M3 receptors.

For another test, the target named is T2, muscarinic M2 receptor (Homo sapiens, UniProt P08172).
T2 construct: expressed in transfected cells
T2 sequence (P08172 1-466): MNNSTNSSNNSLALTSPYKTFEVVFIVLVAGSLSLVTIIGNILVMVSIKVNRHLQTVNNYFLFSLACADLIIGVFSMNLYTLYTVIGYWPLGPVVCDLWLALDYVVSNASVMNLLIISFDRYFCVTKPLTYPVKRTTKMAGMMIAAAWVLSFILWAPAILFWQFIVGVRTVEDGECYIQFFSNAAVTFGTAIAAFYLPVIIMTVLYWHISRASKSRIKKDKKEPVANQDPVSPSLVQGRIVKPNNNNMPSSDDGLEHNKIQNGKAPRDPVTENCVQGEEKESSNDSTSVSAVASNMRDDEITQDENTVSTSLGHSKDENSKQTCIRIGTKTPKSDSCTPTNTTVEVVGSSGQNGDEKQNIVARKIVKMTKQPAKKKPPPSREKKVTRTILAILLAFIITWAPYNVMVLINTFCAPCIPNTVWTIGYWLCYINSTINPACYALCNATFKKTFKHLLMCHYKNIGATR
Description: R-SAT functional screen, M2. It is filed as cell-based. Conditions: for Emax: read-out: M2 eff (efficacy); for EC50: read-out: M2 pEC50 (converted). Here is the method: as §1

As for `Clc1ccc2c(c1)C=C(N1CCNCC1)c1ccccc1N2` [2-Chloro-10-piperazin-1-yl-5H-dibenzo[b,f]azepin], the results for the Emax on muscarinic M1 receptor (R-SAT) and at muscarinic M2 receptor (R-SAT) were 2% and 3%, respectively.

In the case of `Clc1ccc2c(c1)C(N1CCNCC1)=Nc1ccccc1N2` [2-Chloro-11-(piperazin-1-yl)-5H-dibenzo[b,e][1,4]diazepine], the values for the Emax on muscarinic M1 receptor (R-SAT) and on muscarinic M2 receptor (R-SAT) were -5% and 8%, respectively.

For `FC(F)(F)c1ccc2c(c1)N=C(N1CCNCC1)c1cc(Cl)ccc1N2` [2-Chloro-11-(piperazin-1-yl)-8-trifluoromethyl-5H-dibenzo[b,e][1,4]diazepine], the results for the Emax on muscarinic M1 receptor (R-SAT) and on muscarinic M2 receptor (R-SAT) were 10% and 19%, respectively.

With `Clc1ccc2c(c1)N=C(N1CCNCC1)c1cc(I)ccc1N2` [2-Iodo-8-chloro-11-(piperazin-1-yl)-5H-dibenzo[b,e][1,4]diazepine], the Emax on muscarinic M1 receptor (R-SAT) was 3%; on muscarinic M2 receptor (R-SAT), 10%.

As to `Cc1ccc2c(c1)C(N1CCNCC1)=Nc1ccccc1N2` [2-Methyl-11-(piperazin-1-yl)-5H-dibenzo[b,e][1,4]diazepine], the Emax on muscarinic M1 receptor (R-SAT) stood at 1%; on muscarinic M2 receptor (R-SAT), 9%.

As to `Cc1ccc2c(c1)C(N1CCNCC1)=Nc1cc(C(F)(F)F)ccc1N2` [2-Methyl-11-(piperazin-1-yl)-8-trifluoromethyl-5H-dibenzo[b,e][1,4]diazepine], the Emax at muscarinic M1 receptor (R-SAT) is 15%; at muscarinic M2 receptor (R-SAT), 14%.

In the case of `Clc1ccc2c(c1)Nc1cc(Cl)ccc1C(N1CCNCC1)=N2` [3,7-Dichloro-11-(piperazin-1-yl)-5H-dibenzo[b,e][1,4]diazepine], the Emax stood at 15% at muscarinic M1 receptor (R-SAT) and 19% at muscarinic M2 receptor (R-SAT).

Consider `Clc1ccc2c(c1)N=C(N1CCNCC1)c1ccc(Cl)cc1N2` [3,8-Dichloro-11-(piperazin-1-yl)-5H-dibenzo[b,e][1,4]diazepine], for which, at muscarinic M1 receptor (R-SAT), the Emax amounted to 34% and the EC50 was 126 nM. Moreover, on muscarinic M2 receptor (R-SAT), the Emax is 58% and the EC50 was 1580 nM.

As to `Clc1ccc2c(c1)Nc1ccccc1N=C2N1CCNCC1` [3-Chloro-11-(piperazin-1-yl)-5H-dibenzo[b,e][1,4]diazepine], on muscarinic M1 receptor (R-SAT), the Emax stood at 16%. Besides, at muscarinic M2 receptor (R-SAT), the Emax came to 27% and the EC50 is 2000 nM.

As for `Fc1ccc2c(c1)N=C(N1CCNCC1)c1ccccc1C2` [3-Fluoro-6-piperazin-1-yl-11H-dibenzo[b,e]azepine], the Emax on muscarinic M1 receptor (R-SAT) came to 23%. In addition, on muscarinic M2 receptor (R-SAT), the Emax came to 55% and the EC50 was 794 nM.

In the case of `C=CCN1c2ccc(Cl)cc2N=C(N2CCNCC2)c2ccccc21` [5-Allyl-8-chloro-11-(piperazin-1-yl)-5H-dibenzo[b,e][1,4]diazepine], the figures for the Emax at muscarinic M1 receptor (R-SAT) and at muscarinic M2 receptor (R-SAT) were 12% and 46%, respectively. Also, the EC50 at muscarinic M2 receptor (R-SAT) is 1580 nM.

In the case of `Clc1ccc2c(c1)N=C(C1CCNCC1)c1ccccc1N2Cc1ccccc1` [5-Benzyl-8-chloro-11-(piperidin-4-yl)-5H-dibenzo[b,e][1,4]diazepine], the Emax at muscarinic M1 receptor (R-SAT) came out at 12%; at muscarinic M2 receptor (R-SAT), 5%.

With `Clc1cc2c(cc1Cl)Nc1ccccc1C(N1CCNCC1)=N2` [7,8-Dichloro-11-(piperazin-1-yl)-5H-dibenzo[b,e][1,4]diazepine], at muscarinic M1 receptor (R-SAT), the Emax amounted to 32% and the EC50 was 79.4 nM. The Emax on muscarinic M2 receptor (R-SAT) came to 8%.

On to `CC1CC(N2CCNCC2)=Nc2cc(Br)ccc2N1` (centres unmarked) [7-Bromo-2-methyl-(piperazin-1-yl)-2,3-dihydro-1H-benzo[b][1,4]diazepine], for which the Emax at muscarinic M1 receptor (R-SAT) was 16%; at muscarinic M2 receptor (R-SAT), 23%.

Turning to `Brc1ccc2c(c1)N=C(N1CCNCC1)CC(c1ccccc1)N2` (centres unmarked) [7-Bromo-2-phenyl-4-(piperazine-1-yl)-2,3-dihydro-1H-benzo[b][1,4]diazepine], the Emax at muscarinic M1 receptor (R-SAT) turned out to be 3%; on muscarinic M2 receptor (R-SAT), 19%.

As for `Brc1ccc2c(c1)N=C(N1CCNCC1)CCN2` [7-Bromo-4-(piperazin-1-yl)-2,3-dihydro-1H-benzo[b][1,4]diazepine], at muscarinic M1 receptor (R-SAT), the Emax stood at 56% and the EC50 was 2510 nM. At muscarinic M2 receptor (R-SAT), the Emax was 3%.

With `Brc1ccc2c(c1)N=C(N1CCNCC1)C1CCCC1N2` (centres unmarked) [7-Bromo-10-(piperazin-1-yl)-1,2,3,3a,4,10a-hexahydro-benzo[b]cyclopenta[e][1,4]diazepine], at muscarinic M1 receptor (R-SAT), the Emax was 50% and the EC50 is 1580 nM. Moreover, the Emax at muscarinic M2 receptor (R-SAT) is 12%.

Regarding `Cc1ccc2c(c1)C(N1CCNCC1)=Nc1ccc(Cl)cc1N2` [7-Chloro-2-methyl-11-(piperazin-1-yl)-5H-dibenzo[b,e][1,4]diazepine], the Emax is -3% on muscarinic M1 receptor (R-SAT) and 5% on muscarinic M2 receptor (R-SAT).

`Clc1ccc2c(c1)Nc1ccccc1C(N1CCNCC1)=N2` [7-Chloro-11-(piperazin-1-yl)-5H-dibenzo[b,e][1,4]diazepine]: the figures for the Emax on muscarinic M1 receptor (R-SAT) and at muscarinic M2 receptor (R-SAT) were 48% and 53%, respectively. Moreover, the EC50 at muscarinic M1 receptor (R-SAT) is 251 nM.

`O=S(=O)(Oc1ccc2c(c1)N=C(N1CCNCC1)c1ccccc1N2)C(F)(F)F` [8-(Trifluoromethanesulfonyloxy)-11-(piperazin-1-yl)-5H-dibenzo[b,e][1,4]diazepine]: the Emax on muscarinic M1 receptor (R-SAT) was determined as 19%; at muscarinic M2 receptor (R-SAT) it was 62%. Also, on muscarinic M2 receptor (R-SAT), the EC50 is 2510 nM.

Consider `Clc1ccc2c(c1)C(N1CCNCC1)=Nc1cc(Br)ccc1N2` [8-Bromo-2-chloro-11-(piperazin-1-yl)-5H-dibenzo[b,e][1,4]diazepine], for which the Emax at muscarinic M1 receptor (R-SAT) was found to be 10%. On muscarinic M2 receptor (R-SAT), the Emax is 29% and the EC50 was 3160 nM.

Turning to `Cc1ccc2c(c1)C(N1CCNCC1)=Nc1cc(Br)ccc1N2` [8-Bromo-2-methyl-11-(piperazin-1-yl)-5H-dibenzo[b,e][1,4]diazepine], the Emax is 8% on muscarinic M1 receptor (R-SAT) and 44% on muscarinic M2 receptor (R-SAT).

Consider `Clc1ccc2c(c1)Nc1ccc(Br)cc1N=C2N1CCNCC1` [8-Bromo-3-chloro-11-(piperazin-1-yl)-5H-dibenzo[b,e][1,4]diazepine], for which, on muscarinic M1 receptor (R-SAT), the Emax was determined as 31% and the EC50 was 251 nM. For the same compound, at muscarinic M2 receptor (R-SAT), the Emax is 34% and the EC50 is 316 nM.

With `CN1c2ccc(Br)cc2N=C(N2CCNCC2)c2ccccc21` [8-Bromo-5-methyl-11-(piperazin-1-yl)-5H-dibenzo[b,e][1,4]diazepine], on muscarinic M1 receptor (R-SAT), the Emax is 92% and the EC50 is 398 nM. Moreover, on muscarinic M2 receptor (R-SAT), the Emax is 75% and the EC50 was 2510 nM.

For the compound `O=S(=O)(Oc1ccc2c(c1)C(N1CCNCC1)=Nc1cc(Cl)ccc1N2)C(F)(F)F` [8-Chloro-2-(trifluoromethanesulfonyloxy)-11-(piperazin-1-yl)-5H-dibenzo[b,e][1,4]diazepine], the Emax is -2% at muscarinic M1 receptor (R-SAT) and 16% on muscarinic M2 receptor (R-SAT).

On to `Fc1ccc2c(c1)C(N1CCNCC1)=Nc1cc(Cl)ccc1N2` [8-Chloro-2-fluoro-11-(piperazin-1-yl)-5H-dibenzo[b,e][1,4]diazepine], for which the results for the Emax on muscarinic M1 receptor (R-SAT) and on muscarinic M2 receptor (R-SAT) were 32% and 121%, respectively. The EC50 on muscarinic M1 receptor (R-SAT) is 158 nM; at muscarinic M2 receptor (R-SAT), 3160 nM.

`COc1ccc2c(c1)C(N1CCNCC1)=Nc1cc(Cl)ccc1N2` [8-Chloro-2-methoxy-11-(piperazin-1-yl)-5H-dibenzo[b,e][1,4]diazepine]: the Emax on muscarinic M1 receptor (R-SAT) and at muscarinic M2 receptor (R-SAT) was 7% each time.

In the case of `Cc1ccc2c(c1)C(N1CCNCC1)=Nc1cc(Cl)ccc1N2` [8-Chloro-2-methyl-11-(piperazin-1-yl)-5H-dibenzo[b,e][1,4]diazepine], at muscarinic M1 receptor (R-SAT), the Emax was 14%. On muscarinic M2 receptor (R-SAT), the Emax was 28% and the EC50 was 1260 nM.

Regarding `Clc1ccc2c(c1)N=C(N1CCNCC1)c1cccnc1N2` [8-Chloro-5-piperazin-1-yl-1H-benzo[b]pyrido[2,3-e][1,4]diazepine], the EC50 at muscarinic M1 receptor (R-SAT) was 3160 nM. Also, the Emax is 51% at muscarinic M1 receptor and 7% on muscarinic M2 receptor.

Take `Clc1ccc2c(c1)N=C(c1cn[nH]c1)c1ccccc1N2` [8-Chloro-11-(1H-pyrazol-4-yl)-5H-dibenzo[b,e][1,4]diazepine]: the values for the Emax on muscarinic M1 receptor (R-SAT) and on muscarinic M2 receptor (R-SAT) were 9% and 3%, respectively.

With `Clc1ccc2c(c1)N=C(N1CC3CC1CN3)c1ccccc1N2` (centres unmarked) [8-Chloro-11-(2,5-diaza-bicyclo[2.2.1]hept-2-yl)-5H-dibenzo[b,e][1,4]diazepine], on muscarinic M1 receptor (R-SAT), the Emax stood at 34% and the EC50 is 251 nM. On muscarinic M2 receptor (R-SAT), the Emax amounted to 49% and the EC50 was 2510 nM.
